# Source: patent US11730705B2, “Small molecule CMKLR1 antagonists in inflammatory disease” (The Board of Trustees of the Leland Stanford Junior …, priority 2019, dated 2023)
# Like-named read-outs stand apart in the source and are kept apart here.
# Columns and labels:
# CMKLR1 = target: T1, CMKLR1 (Homo sapiens, UniProt Q99788); assay: β-arrestin recruitment assay (chemerin-mediated β-arrestin2 association with CMKLR1); format: cell-based
# T1 construct: host or cells: CHO-K1 (PathHunter)
# T1 sequence (Q99788 1-373): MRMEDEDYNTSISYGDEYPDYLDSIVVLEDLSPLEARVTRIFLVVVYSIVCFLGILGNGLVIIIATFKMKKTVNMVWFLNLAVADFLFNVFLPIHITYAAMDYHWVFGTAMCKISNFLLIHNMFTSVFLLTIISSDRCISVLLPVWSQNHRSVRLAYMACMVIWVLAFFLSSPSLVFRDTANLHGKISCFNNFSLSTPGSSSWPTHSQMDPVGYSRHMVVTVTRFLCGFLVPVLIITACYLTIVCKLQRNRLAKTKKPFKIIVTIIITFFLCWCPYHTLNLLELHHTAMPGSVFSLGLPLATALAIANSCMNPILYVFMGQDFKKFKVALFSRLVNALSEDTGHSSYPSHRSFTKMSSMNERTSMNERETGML
# Experimental: (§1) FIG. 15A-15D. […] IC50 values were determined based on 6-point dose-response curves for each compound. (FIG. 15A) α-NETA. […] (FIG. 15A-15C) mean±SEM, n=3-18 independent experiments. […] 0.2 ml each compound (in 10% captisol) or vehicle control was administered by oral gavage beginning one day prior to psoriasis induction. Back skin thickness was measured daily and normalized to day 0. mean±SEM, n=10 mice for vehicle and α-NETA groups pooled from two independent trials; n=3 mice for (27) and (6) from one trial.
# Cell culture. […] DiscoverX PathHunter® CHO-K1 CMKLR1 β-Arrestin Cells were grown in RPMI lacking phenol red (Gibco, Life Technologies), supplemented with L-glutamine, penicillin-streptomycin, sodium pyruvate, non-essential amino acid, BCS, hygromycin, and G418-sulfate.
# β-arrestin recruitment assay. CMKLR1-CHO-β-Arrestin cells were seeded in 96 well plates at 1×10^5 cell/ml-100 ul/well and incubated overnight at 37° C., 5% CO2. The next day, media was removed and cells were pre-incubated in PBS with α-NETA or test compound (95 ul/well) in a 6 point dose response curve from 100 μM to 0.3 μM for 10 min at RT. (α-NETA and test compounds were reconstituted in DMSO; final DMSO concentration in each well was 0.1%). After 10 min, 5 ul of recombinant human chemerin (R&D Systems) at a final concentration of 20 nM was added to each well. Plates were incubated for 90 min at 37° C., 5% CO2. Media was then removed and 50 ul of chemiluminescent substrate (Tropix Gal-Screen, Applied Biosciences) was added. The plate was incubated for 1 hr at RT and luminescence was detected using the SpectraMax M5 plate reader (Molecular Devices). For each independent trial (single replicate dose curves), data was normalized to the maximum signal per compound tested and an IC50 value was generated using GraphPad Prism software. The average IC50 value for n independent trials (as specified in the table) is reported.
# [1] = system: IMQ-induced psoriasis in mice; assay: IMQ-induced psoriasis model; format: in vivo, mouse; conditions: for clinical features of experimental psoriasis: oral gavage in 10% captisol, FIG. 15D
# Experimental: FIG. 11A-11G. […] Representative images of the same mouse shown over time. […] Mice were treated twice daily with IMQ±dexamethasone (DEX, 200 ug/mouse) 1 h prior to IMQ treatment. […] (FIG. 11G) NK cell (CD45+DX5+CD11b-CD3-CD19-) infiltration into lesional or non-lesional adjacent skin was determined by flow cytometry (6 day timepoint) for IMQ-treated WT and chemerin KO mice. mean±SEM, n=4 mice per genotype, ***p<0.005 by 2-tailed t-test; **p<0.01 by 2-tailed t-test; *p<0.05 by 1-tailed t-test.
# FIG. 13A-13D. […] Fold change with respect to day 0 measurements are shown. […] For A-C, n=3 untreated, n=5 IMQ-treated mice of each genotype, mean±SEM, *p<0.05 by 2-tailed t-test.
# as §1
# EAE in C57BL/6 mice = assay: EAE induced by MOG35-55/CFA immunization; format: in vivo, mouse; conditions: Table 4, 10 mg/kg daily to D 21, n = 8; for Maximum Score (Mean ± SEM): clinical score 0-5; for AUC (Mean ± SEM): mean clinical score × day
# Experimental: FIG. 1A-1D. […] (FIG. 1D) The integrated clinical score over time for each animal was calculated as area under the curve (AUC).
# EAE. […] CFA consisted of 5 mg/ml mTB (Mycobacterium-tuberculosis H37 Ra, BD Difco) in IFA (Incomplete Freund's Adjuvant, Sigma). MOG35-55 was reconstituted at 2 mg/ml in PBS. Mice also received 200 ng pertussis toxin (List Biological Laboratories, Inc) by i.p. injection at the time of immunization and two days later. […] For a direct comparison to α-NETA, the DMF and compound doses were also 10 mg/kg in 10% captisol. Mice were monitored daily for clinical disease and scored (0=normal/healthy, 1=limp tail, 2=hindlimb weakness, 3=hindlimb paralysis, 4=hindlimb and forelimb paralysis, 5=moribund/dead).
# (hu)CMKLR1 L1.2 cells = target: T2, (hu)CMKLR1 L1.2 cells (Homo sapiens, UniProt Q99788); assay: Chemotaxis assay (chemerin-dependent CMKLR1+ cell migration); format: cell-based; conditions: for IC50: Table 3, migration toward huChemerin, 2 h transwell, read-out: Chemotaxis IC50 μM mean ± SEM (n)
# T2 construct: expressed in transfected cells; host or cells: L1.2 pre-B cell lymphoma cells
# T2 sequence (Q99788 1-373): T1 sequence (Q99788 1-373)
# Experimental: Cell culture. (hu)CMKLR1 transfectants (generated in L1.2 pre-B cell lymphoma cells) were grown in RPMI 1640 (Corning) supplemented with L-glutamine, penicillin-streptomycin, and 10% BCS and G418-sulfate (KSE Scientific). DiscoverX PathHunter® CHO-K1 CMKLR1 β-Arrestin Cells were grown in RPMI lacking phenol red (Gibco, Life Technologies), supplemented with L-glutamine, penicillin-streptomycin, sodium pyruvate, non-essential amino acid, BCS, hygromycin, and G418-sulfate.
# Chemotaxis assay. (hu)CMKLR1 L1.2 cells at 1×10^6 cell/ml were treated with 5 mM sodium butyrate (Sigma) overnight to induce hCMKLR1 expression. The next day, cells were washed in migration media (RPMI+0.5% BSA) and resuspended at 1.5-3×10^6 cell/ml. Cells were pre-incubated at RT for 10 min with various concentrations of α-NETA or test compounds (α-NETA and test compounds were reconstituted in DMSO; final DMSO concentration in each well was 0.1%). 100 ul of cells were added to the upper chamber of a 24-well transwell plate (5 um pore size, Costar). Cells were allowed to migrate toward huChemerin ([…] in migration media, bottom chamber) for 2 h, 37° C., 5% CO2. The number of migrated cells was quantified by flow cytometry (BD LSR2), and live cells were distinguished based on FSC×SSC properties. The background for this assay was typically low with 0 cells migrating to the buffer alone. For each independent trial, data was normalized to the maximum migration per compound tested and an IC50 value was generated using GraphPad Prism software. The average IC50 value for n independent trials (as specified in the table) is reported.
# [2] = Table 2, tertiary amines, chemerin 20 nM, CHO transfectants, read-out: β-arrestin IC50 μM mean ± SEM (n)
# [3] = Table 3, quaternary ammonium salts, chemerin 20 nM, CHO transfectants, read-out: β-arrestin IC50 μM mean ± SEM (n)
# [4] = values given in running text b220, read-out: β-arrestin2 assay IC50
SMILES,IC50 (CMKLR1; [2]) [µM],IC50 ((hu)CMKLR1 L1.2 cells) [µM],IC50 (CMKLR1; [3]) [µM],further results
CN(C)CCC(=O)c1cccc2ccccc12 [Compound 3],18.8,–,–,–
CCN(C)CCC(=O)c1cccc2ccccc12 [Compound 4],17.9,–,–,–
CCN(CC)CCC(=O)c1cccc2ccccc12 [Compound 5],8.9 ± 2.4,–,–,–
COc1ccc2ccccc2c1C(=O)CCN(C)C [Compound 6],6.2 ± 2.5,–,–,clinical features of experimental psoriasis [1]: suppressed; Maximum Score (Mean ± SEM) (EAE in C57BL/6 mice): 2.4 ± 0.2; AUC (Mean ± SEM) (EAE in C57BL/6 mice): 25.2 ± 4.0; Day of onset (Mean ± SEM) (EAE in C57BL/6 mice): 14.5 ± 0.4
CN(C)CCC(=O)c1ccc2ccccc2c1 [Compound 7],18.5,–,–,–
CCN(CC)CCC(=O)c1ccc2ccccc2c1 [Compound 8],71.3,–,–,–
CCN(C)CCC(=O)c1ccc2ccccc2c1 [Compound 9],39.6,–,–,–
CCCCN(C)CCC(=O)c1ccc2ccccc2c1 [Compound 10],44.5,–,–,–
COc1ccc2cc(C(=O)CCN(C)C)ccc2c1 [Compound 11],> 100,–,–,–
CN(C)CCC(=O)c1ccccc1 [Compound 12],> 100,–,–,–
CCN(C)CCC(=O)c1ccccc1 [Compound 13],16.8 ± 8.3,–,–,–
CCN(CC)CCC(=O)c1ccccc1 [Compound 14],77.8,–,–,–
CCCCN(C)CCC(=O)c1ccccc1 [Compound 15],> 100,–,–,–
COc1ccccc1C(=O)CCN(C)C [Compound 16],> 100,–,–,–
COc1ccc(C(=O)CCN(C)C)cc1 [Compound 17],> 100,–,–,–
COc1cccc(C(=O)CCN(C)C)c1 [Compound 18],64,–,–,–

SMILES,IC50 (CMKLR1; [2]) [µM],IC50 ((hu)CMKLR1 L1.2 cells) [µM],IC50 (CMKLR1; [3]) [µM],further results
COc1cccc(OC)c1C(=O)CCN(C)C [Compound 19],10.3 ± 4.5,–,–,–
CN(C)CCC(=O)C1CCCCC1 [Compound 20],> 100,–,–,activity in β-arrestin2 assay (CMKLR1): complete loss of activity
C[N+](C)(C)CCC(=O)c1ccc2ccccc2c1 [Compound 23],–,24.1,2.5 ± 0.9,IC50 (CMKLR1; [4]): 3.1 µM
C[N+](C)(C)CCC(=O)c1ccccc1 [Compound 24],–,> 100,5.6 ± 0.7,activity in chemotaxis assay ((hu)CMKLR1 L1.2 cells): did not show any activity; activity in β-arrestin2 assay (CMKLR1): showed activity; IC50 (CMKLR1; [4]): 4.3 µM
C[N+](C)(C)CCC(=O)C1CCCCC1 [Compound 25],–,> 100,–,IC50 (CMKLR1; [4]): 11.9 µM
COc1ccccc1C(=O)CC[N+](C)(C)C [Compound 26],–,7.2,2.9 ± 1.6,activity in chemotaxis assay ((hu)CMKLR1 L1.2 cells): highly active; activity in β-arrestin2 assay (CMKLR1): highly active
COc1ccc(C(=O)CC[N+](C)(C)C)cc1 [Compound 27],–,4.5 ± 1.5,1.9 ± 0.2,activity in chemotaxis assay ((hu)CMKLR1 L1.2 cells): highly active; activity in β-arrestin2 assay (CMKLR1): highly active; clinical features of experimental psoriasis [1]: suppressed; Maximum Score (Mean ± SEM) (EAE in C57BL/6 mice): 2.1 ± 0.1¶; AUC (Mean ± SEM) (EAE in C57BL/6 mice): 24.3 ± 4.2; Day of onset (Mean ± SEM) (EAE in C57BL/6 mice): 16.0 ± 0.9
COc1cccc(C(=O)CC[N+](C)(C)C)c1 [Compound 28],–,14.6 ± 4.8,3.8 ± 1.7,–
COc1ccc(C(=O)CC[N+](C)(C)C)c(OC)c1 [Compound 29],–,17.4 ± 2.2,4.8 ± 1.6,–
COc1cccc(OC)c1C(=O)CC[N+](C)(C)C.[I-] [Compound 30],–,6.8,2.1 ± 1.1,activity in chemotaxis assay ((hu)CMKLR1 L1.2 cells): highly active; activity in β-arrestin2 assay (CMKLR1): highly active
COc1cc(OC)cc(C(=O)CC[N+](C)(C)C)c1 [Compound 31],–,> 100,6 ± 2.2,–
COc1ccc2cc(C(=O)CC[N+](C)(C)C)ccc2c1 [Compound 32],–,20 ± 6.2,1.5 ± 0.3,–
COc1ccc2ccccc2c1C(=O)CC[N+](C)(C)C [Compound 33],–,10.7,0.6 ± 0.3,–
C[N+](C)(C)CCS(=O)(=O)c1ccccc1.[I-] [Compound 35],–,–,–,activity in β-arrestin2 assay (CMKLR1): inactive
"C[C@@H]1C[C@H]2[C@@H]3CCC4=CC(=O)C=C[C@]4(C)[C@@]3(F)[C@@H](O)C[C@]2(C)[C@@]1(O)C(=O)CO [dexamethasone, reference compound]",–,–,–,"percent inhibition of skin thickening ([1]; day 5 post-IMQ, 200 ug/mouse 1 h prior to IMQ): 62±6%"
